Laboratory results from patent US7772221B2, “Diaminopropane derived macrocycles as inhibitors of β amyloid production” (Bristol-Meyers Squibb Company, priority 2007, dated 2010).
pIC50: −log10 of the molar value.

Each molecule was assayed against T1, BACE1 enzyme (Homo sapiens, UniProt P56817) (assay: Radioligand displacement assay with a radiolabeled BACE inhibitor). Settings: HEK293-9B.A1 cell homogenate overexpressing BACE1, 1 nM radioligand, pH 5.0, 1.5 hr at 25° C.; read-out: Activity Rating (activity based on IC50 values).
T1 construct: endogenous in cells; washed 48,000 x g membrane pellet / cell homogenate
T1 sequence (P56817 46-501): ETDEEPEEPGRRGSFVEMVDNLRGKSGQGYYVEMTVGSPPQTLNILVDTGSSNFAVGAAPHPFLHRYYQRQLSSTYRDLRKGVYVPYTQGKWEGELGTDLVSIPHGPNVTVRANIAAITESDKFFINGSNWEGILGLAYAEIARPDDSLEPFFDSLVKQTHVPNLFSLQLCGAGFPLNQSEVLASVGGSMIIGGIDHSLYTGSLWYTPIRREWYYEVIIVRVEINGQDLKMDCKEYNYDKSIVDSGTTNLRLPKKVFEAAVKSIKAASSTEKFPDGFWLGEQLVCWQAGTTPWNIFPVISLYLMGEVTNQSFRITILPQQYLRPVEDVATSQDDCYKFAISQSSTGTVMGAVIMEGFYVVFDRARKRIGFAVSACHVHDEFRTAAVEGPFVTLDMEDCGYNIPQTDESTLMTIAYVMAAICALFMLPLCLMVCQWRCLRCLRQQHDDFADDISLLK
Assay type: binding
Text: There are a number of methods by which inhibitors of the BACE enzyme can be identified experimentally. The enzyme can be obtained from membrane samples from natural tissues or cultured cells or can be expressed recombinantly in a host cell by well known methods of molecular biology. The whole enzyme or a portion thereof can be expressed, for example, in bacterial, insect or mammalian cells to obtain a catalytically active enzyme species. The enzymatic activity and/or ligand binding capability of the enzyme can be assessed within these membrane samples, or the enzyme can be purified to varying extents. As an illustrative example, the nucleic acid sequence encoding the pro and catalytic domains of human BACE can be appended on the 5′ end with an untranslated and signal sequence from the gene for acetylcholinesterase, and on the 3′ end with a sequence encoding a poly-histidine tag. This cDNA can then be expressed in Drosophila melanogaster S2 cells in which the signal and pro sequences of the transcribed/translated protein are removed by cellular proteases and the catalytic domain, appended by a C-terminal poly-histidine tag, is secreted out into the cellular medium. The enzyme can then be purified from the culture medium by nickel affinity chromatography by methods well known to those trained in the art [Mallender, W. et al., “Characterization of recombinant, soluble beta-secretase from an insect cell expression system.” Mol. Pharmacol. 2001, 59: 619-626]. Similar strategies for expressing and purifying various forms of BACE in bacterial, mammalian and other cell types would be known to one skilled in the art. A preferred method for determining the potency of a test compound in binding to the BACE enzyme is by monitoring the displacement of a suitable radioligand.
Radioligand displacement assays with a radiolabeled BACE inhibitor (WO 2004 013098, compound 3, where the methoxy group is substituted for C(^3H)3) were carried out using standard methods (Keen, M. (1999) in Receptor Binding Techniques (Walker, J. M. ed) p. 106 Humana Press, Totowa, N.J.). The HEK293-9B.A1 cell line, which overexpresses the BACE1 enzyme, was derived from HEK293 cells (Simmons, N. L. (1990) A cultured human renal epithelioid cell line responsive to vasoactive intestinal peptide. Exp. Physiol. 75:309-19.) by RAGE™ (Harrington, J. J. et al. (2001) Creation of genome-wide protein expression libraries using random activation of gene expression. Nat. Biotechnol. 19:440-5.; U.S. Pat. Nos. 6,410,266 and 6,361,972). T225 flask cultures of HEK293-9B.A1 were grown to 80% confluency in DMEM supplemented with 2 mM L-glutamine, 10 μg/mL penicillin, 10 μg/mL streptomycin, 3 μg/mL puromycin, 100 nM methotrexate, and 10% fetal bovine serum (Invitrogen, Carlsbad, Calif.), harvested, and resuspended at 2×10^8 cells per 10 mL of lysis buffer consisting of 50 mM HEPES pH 7.0 containing a protease inhibitor cocktail of AEBSF 104 μM, aprotinin 80 nM, leupeptin 2 μM, bestatin 4 μM, pepstatin A 1.5 μM, and E-64 1.4 μM (0.1% of protease inhibitor cocktail P8340, Sigma-Aldrich, St. Louis, Mo.) at 4° C. The resuspended cells were homogenized using a Polytron (Brinkman, Westbury, N.Y.) at setting 6 for 10 sec., then centrifuged at 48,000×g for 10 min. The resulting pellet was washed by repeating the resuspension, homogenization and centrifugation steps. The final pellet was resuspended in buffer at 4° C. to yield a total protein concentration of 5 mg/mL, then aliquots were frozen in liquid nitrogen for further storage at −70° C. Immediately before carrying out a binding assay, an aliquot of cell homogenate was thawed and diluted to a concentration of 100 μg/mL in assay buffer consisting of 50 mM HEPES pH 5.0 and 0.1% CHAPSO. […]
With `COc1ccc2c(c1)[C@@H]1C[C@H]2NCCCC[C@H](N(C)S(=O)(=O)CCC(F)(F)F)C(=O)N[C@@H](Cc2ccccc2)[C@H](O)CN1` (single isomer, unassigned) [Example 52] the pIC50 was 6.30 to 8.00. `COc1ccc2c(c1)[C@@H]1C[C@H]2OCC=CCC[C@H](N(C)S(=O)(=O)CCC(F)(F)F)C(=O)N[C@@H](CC(C)C)[C@H](O)CN1` [Example 70, 3,3,3-trifluoro-propane-1-sulfonic acid ((1S,4R,5S,8S,15R)-4-hydroxy-5-isobutyl-19-methoxy-7-oxo-14-oxa-2,6-diaza-tricyclo[13.6.1.0^16,21]docosa-11,16(21),17,19-tetraen-8-yl)-methyl-amide] was tested, and the pIC50 was > 8.00. For `CCCCCS(=O)(=O)N(C)[C@H]1CCCCO[C@H]2Cc3ccc(OC)cc3[C@H]2NC[C@@H](O)[C@H](Cc2ccccc2)NC1=O` [Example 29, pentane-1-sulfonic acid ((1S,7S,10S,11R,14R)-10-benzyl-11-hydroxy-17-methoxy-8-oxo-2-oxa-9,13-diaza-tricyclo[12.7.0.0^15,20]henicosa-15(20),16,18-trien-7-yl)-methyl-amide], the pIC50 was 6.30 to 8.00. Work on `CC(C)(C)OC(=O)N1CC2CN(c3ccc4c(c3)[C@@H]3C[C@H]4OCC=CCCCC(=O)N[C@@H](Cc4cc(F)cc(F)c4)[C@H](O)CN3)CC2C1` (stereo partly drawn) [Example 96, 5-[(1S,4R,5S,15R)-5-(3,5-difluoro-benzyl)-4-hydroxy-7-oxo-14-oxa-2,6-diaza-tricyclo[13.6.1.0^16,21]docosa-11,16(21),17,19-tetraen-19-yl]-hexahydro-pyrrolo[3,4-c]pyrrole-2-carboxylic acid tert-butyl ester] yielded a pIC50 of 6.30 to 8.00. For `CCCCCS(=O)(=O)N(C)[C@H]1CC=CCO[C@@H]2C[C@H](NC[C@@H](O)[C@H](Cc3cc(Cl)cc(Cl)c3)NC1=O)c1cc(OC)ccc12` [Example 43], the pIC50 was > 8.00. For `O=C1CCCC=CCO[C@@H]2C[C@H](NC[C@@H](O)[C@H](Cc3cc(F)cc(F)c3)N1)c1cc(-c3cc(C(F)(F)F)cc(C(F)(F)F)c3)ccc12` [Example 91, (1S,4R,5S,15R)-19-(3,5-bis-trifluoromethyl-phenyl)-5-(3,5-difluoro-benzyl)-4-hydroxy-14-oxa-2,6-diaza-tricyclo[13.6.1.0^16,21]docosa-11,16(21),17,19-tetraen-7-one], the pIC50 was < 6.30. With `CCCC[C@H](C)C(=O)N(C)[C@H]1CC=CCO[C@@H]2C[C@H](NC[C@@H](O)[C@H](Cc3ccccc3)NC1=O)c1cc(C)cc(C)c12` [Example 100, (S)-2-methyl-hexanoic acid ((1S,4R,5S,8S,14R)-5-benzyl-4-hydroxy-16,18-dimethyl-7-oxo-13-oxa-2,6-diaza-tricyclo[12.6.1.0^15,20]henicosa-10,15(20),16,18-tetraen-8-yl)-methyl-amide] the pIC50 was > 8.00. For `CCCC[C@H]1CC=CCO[C@@H]2C[C@H](NC[C@@H](O)[C@H](Cc3cc(F)cc(F)c3)NC1=O)c1cc(OC)ccc12` [Example 8, (1S,4R,5S,8S,14R)-8-butyl-5-(3,5-difluoro-benzyl)-4-hydroxy-18-methoxy-13-oxa-2,6-diaza-tricyclo[12.6.1.0^15,20]henicosa-10,15(20),16,18-tetraen-7-one], the pIC50 was < 6.30. In the case of `COc1ccc2c(c1)[C@@H]1C[C@H]2OCC=CC[C@H](N(C)C(=O)C(C)CC(F)(F)F)C(=O)N[C@@H](Cc2cc(F)cc(F)c2)[C@H](O)CN1` (single isomer, unassigned; diastereomer a) [Example 21], the pIC50 was > 8.00. With `COc1ccc2c(c1)[C@@H]1CC2N(C)CCCCC[C@H](N(C)S(=O)(=O)CCC(F)(F)F)C(=O)N[C@@H](Cc2ccccc2)[C@H](O)CN1` [Example 56, 3,3,3-trifluoro-propane-1-sulfonic acid ((1S,4R,5S,8S)-5-benzyl-4-hydroxy-19-methoxy-14-methyl-7-oxo-2,6,14-triaza-tricyclo[13.6.1.0^16,21]docosa-16(21),17,19-trien-8-yl)-methyl-amide] the pIC50 was 6.30 to 8.00. With `CCCC[C@H](C)C(=O)N(C)[C@H]1CCCCO[C@@H]2C[C@H](NC[C@@H](O)[C@H](Cc3cc(Cl)cc(Cl)c3)NC1=O)c1cc(OC)ccc12` [Example 49, (S)-2-methyl-hexanoic acid ((1S,4R,5S,8S,14R)-5-(3,5-dichloro-benzyl)-4-hydroxy-18-methoxy-7-oxo-13-oxa-2,6-diaza-tricyclo[12.6.1.0^15,20]henicosa-15(20),16,18-trien-8-yl)-methyl-amide] the pIC50 was > 8.00. `CCCC(CCC)C(=O)N(C)[C@H]1CC=CCOCCC(c2cccc(OC)c2)NC[C@@H](O)[C@H](Cc2ccccc2)NC1=O` (stereo partly drawn) [Example 19, N-((7R,8S,11S)-8-benzyl-7-hydroxy-4-(3-methoxyphenyl)-10-oxo-1-oxa-5,9-diazacyclopentadec-13-en-11-yl)-N-methyl-2-propylpentanamide] was tested, and the pIC50 was < 6.30. With `COc1ccc2c(c1)[C@@H]1C[C@H]2COCC=CC[C@H](N(C)S(=O)(=O)CCC(F)(F)F)C(=O)N[C@@H](Cc2ccccc2)[C@H](O)CN1` (single isomer, unassigned; isomer a) [Example 35] the pIC50 was > 8.00. For `CCCC[C@H](C)C(=O)N(C)[C@H]1CC=CCOC[C@@H](c2ccccc2)NC[C@@H](O)[C@H](Cc2cc(F)cc(F)c2)NC1=O` [Example 18, (S)-2-methyl-hexanoic acid [(3R,6R,7S,10S)-7-(3,5-difluoro-benzyl)-6-hydroxy-9-oxo-3-phenyl-1-oxa-4,8-diaza-cyclotetradec-12-en-10-yl]-methyl-amide], the pIC50 was < 6.30. In the case of `CN([C@H]1CCC=CCO[C@@H]2C[C@H](NC[C@@H](O)[C@H](Cc3ccccc3)NC1=O)c1cc(Br)ccc12)S(=O)(=O)CCC(F)(F)F` [Example 61, 3,3,3-trifluoro-propane-1-sulfonic acid ((1S,4R,5S,8S,15R)-5-benzyl-19-bromo-4-hydroxy-7-oxo-14-oxa-2,6-diaza-tricyclo[13.6.1.0^16,21]docosa-11,16(21),17,19-tetraen-8-yl)-methyl-amide], the pIC50 was > 8.00. For `CC(C)CCc1ccc2c(c1)[C@@H]1C[C@H]2OCC=CCCCC(=O)N[C@@H](Cc2cc(F)cc(F)c2)[C@H](O)CN1` [Example 69, (1S,4R,5S,15R)-5-(3,5-difluoro-benzyl)-4-hydroxy-19-(3-methyl-butyl)-14-oxa-2,6-diaza-tricyclo[13.6.1.0^16,21]docosa-11,16(21),17,19-tetraen-7-one], the pIC50 was 6.30 to 8.00. `CCOc1ccsc1C(=O)N(C)[C@H]1CC=CCO[C@@H]2C[C@H](NC[C@@H](O)[C@H](Cc3ccccc3)NC1=O)c1cc(OC)ccc12` [Example 20, 3-ethoxy-thiophene-2-carboxylic acid ((1S,4R,5S,8S,14R)-5-benzyl-4-hydroxy-18-methoxy-7-oxo-13-oxa-2,6-diaza-tricyclo[12.6.1.0^15,20]henicosa-10,15(20),16,18-tetraen-8-yl)-methyl-amide] was tested, and the pIC50 was 6.30 to 8.00. With `CCCC[C@H](C)C(=O)N(C)[C@H]1CC=CCO[C@H]2CC[C@H](C2)NC[C@@H](O)[C@H](Cc2cc(F)cc(F)c2)NC1=O` (racemic) [Example 25, (S)-2-methyl-hexanoic acid [(1R,4R,5S,8S,14S)-5-(3,5-difluoro-benzyl)-4-hydroxy-7-oxo-13-oxa-2,6-diaza-bicyclo[12.2.1]heptadec-10-en-8-yl]-methyl-amide and (S)-2-methyl-hexanoic acid [(1S,4R,5S,8S,14R)-5-(3,5-difluoro-benzyl)-4-hydroxy-7-oxo-13-oxa-2,6-diaza-bicyclo[12.2.1]heptadec-10-en-8-yl]-methyl-amide] the pIC50 was 6.30 to 8.00.
